Reference: the NIST ThermoML archive (doi:10.1016/j.jct.2019.105883)

Assay: xn = mol fraction of the nth substance listed
Conditions: 101.3 kPa, Liquid; for viscosity: Concentric cylinders viscometry; for mass density: Vibrating tube method

CCN.Cl [ethylammonium chloride] + CC(N)=O
Conditions | mass density, 313.2 K [kg/m3] | mass density, 323.2 K [kg/m3] | mass density, 333.2 K [kg/m3] | mass density, 343.2 K [kg/m3] | mass density, 353.2 K [kg/m3] | viscosity, 313.2 K [mPa·s] | viscosity, 323.2 K [mPa·s] | viscosity, 333.2 K [mPa·s] | viscosity, 343.2 K [mPa·s] | viscosity, 353.2 K [mPa·s]
x1 = 0.252 | 1041 | 1034.3 | 1027.6 | 1020.9 | 1014.2 | 32.6 | 27.8 | 21.9 | 18.4 | 15.2
x1 = 0.337 | 1042.8 | 1036.4 | 1030 | 1023.7 | 1017.3 | 58 | 39.2 | 29.1 | 23.3 | 18.6
x1 = 0.5 | 1043.8 | 1037.9 | 1032 | 1026.2 | 1020.4 | 71.5 | 48.4 | 35.8 | 28.2 | 23.5
